ChEMBL document CHEMBL1156805, “Development of (S)-N6-(2-(4-(isoquinolin-1-yl)piperazin-1-yl)ethyl)-N6-propyl-4,5,6,7-tetrahydrobenzo[d]-thiazole-2,6-diamine and its analogue as a D3 receptor preferring agonist: potent in vivo activity in Parkinson's disease animal models” (J Med Chem, 2010)

Legend:
D(2) dopamine receptor [1] = target: T1, D(2) dopamine receptor (Homo sapiens, UniProt P14416); test: biochemical
D(3) dopamine receptor [2] = target: T2, D(3) dopamine receptor (Rattus norvegicus, UniProt P19020)
D(2) dopamine receptor [3] = target: D(2) dopamine receptor (Rattus norvegicus, UniProt P61169); test: biochemical
D(3) dopamine receptor [4] = target: T2, D(3) dopamine receptor; test: biochemical
D(3) dopamine receptor [5] = target: T3, D(3) dopamine receptor (Homo sapiens, UniProt P35462); test: biochemical
D(2) dopamine receptor [6] = target: T1, D(2) dopamine receptor; test: Agonist activity at human dopamine D2L receptor expressed in CHO cells assessed as stimulation of [35S]GTPgamma binding relative to 1 mM dopamine; type: functional, cell-based
[7] = test system: Radical scavenging activity
Description: Antioxidant activity assessed as DPPH radical scavenging activity

D(2) dopamine receptor [8] = target: T1, D(2) dopamine receptor
D(3) dopamine receptor [9] = target: T3, D(3) dopamine receptor

T3 sequence (P35462 whole entry): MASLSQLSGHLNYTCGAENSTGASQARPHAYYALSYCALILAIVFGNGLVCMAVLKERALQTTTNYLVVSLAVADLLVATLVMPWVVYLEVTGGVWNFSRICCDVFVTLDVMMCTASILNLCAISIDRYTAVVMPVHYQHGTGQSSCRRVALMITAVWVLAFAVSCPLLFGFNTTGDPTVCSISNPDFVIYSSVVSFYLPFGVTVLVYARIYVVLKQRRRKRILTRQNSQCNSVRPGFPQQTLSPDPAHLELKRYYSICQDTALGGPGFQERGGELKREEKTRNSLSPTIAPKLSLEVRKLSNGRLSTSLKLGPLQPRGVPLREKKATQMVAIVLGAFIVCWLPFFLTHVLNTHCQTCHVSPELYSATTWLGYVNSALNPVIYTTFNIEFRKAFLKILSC
Sequence of D(2) dopamine receptor (Rattus norvegicus, UniProt P61169) (P61169 whole entry): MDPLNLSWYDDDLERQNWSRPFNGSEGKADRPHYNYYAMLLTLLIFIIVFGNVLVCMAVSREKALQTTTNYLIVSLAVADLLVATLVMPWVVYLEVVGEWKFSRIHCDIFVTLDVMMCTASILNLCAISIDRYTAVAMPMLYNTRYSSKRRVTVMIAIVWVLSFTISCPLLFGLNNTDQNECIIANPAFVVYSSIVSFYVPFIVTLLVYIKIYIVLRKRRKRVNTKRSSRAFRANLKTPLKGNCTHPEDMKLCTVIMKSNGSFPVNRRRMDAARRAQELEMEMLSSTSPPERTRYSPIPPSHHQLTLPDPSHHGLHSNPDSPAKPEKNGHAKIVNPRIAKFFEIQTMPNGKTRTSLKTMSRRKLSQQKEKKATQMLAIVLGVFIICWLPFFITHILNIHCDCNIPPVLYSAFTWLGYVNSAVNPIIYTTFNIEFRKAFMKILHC
T2 sequence (P19020 whole entry): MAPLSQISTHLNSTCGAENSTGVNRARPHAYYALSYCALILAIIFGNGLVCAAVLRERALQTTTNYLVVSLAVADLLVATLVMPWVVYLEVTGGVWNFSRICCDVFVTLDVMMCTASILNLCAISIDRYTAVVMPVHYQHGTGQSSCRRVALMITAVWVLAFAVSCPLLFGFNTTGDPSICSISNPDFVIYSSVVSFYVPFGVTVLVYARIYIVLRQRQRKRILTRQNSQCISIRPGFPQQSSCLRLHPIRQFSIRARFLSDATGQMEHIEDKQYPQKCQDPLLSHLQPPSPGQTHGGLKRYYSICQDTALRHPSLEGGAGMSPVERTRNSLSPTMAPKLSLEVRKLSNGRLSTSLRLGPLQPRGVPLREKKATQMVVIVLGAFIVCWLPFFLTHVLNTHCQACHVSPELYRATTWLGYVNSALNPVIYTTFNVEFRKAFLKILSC
T1 sequence (P14416 whole entry): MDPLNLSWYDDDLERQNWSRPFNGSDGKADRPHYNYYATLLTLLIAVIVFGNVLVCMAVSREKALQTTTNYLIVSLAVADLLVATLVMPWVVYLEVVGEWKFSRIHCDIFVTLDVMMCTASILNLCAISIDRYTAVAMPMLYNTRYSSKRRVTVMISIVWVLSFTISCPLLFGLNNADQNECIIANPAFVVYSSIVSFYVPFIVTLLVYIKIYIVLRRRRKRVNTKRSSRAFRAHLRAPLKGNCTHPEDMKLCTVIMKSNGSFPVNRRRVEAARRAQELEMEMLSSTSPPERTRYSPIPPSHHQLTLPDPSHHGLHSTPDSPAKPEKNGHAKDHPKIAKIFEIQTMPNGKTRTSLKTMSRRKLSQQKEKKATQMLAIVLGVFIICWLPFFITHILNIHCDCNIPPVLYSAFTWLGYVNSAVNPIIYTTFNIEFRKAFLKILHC

With `CCCN(CCC)CCc1cccc2c1CC(=O)N2` [ROPINIROLE] the EC50 (D(2) dopamine receptor [1]) was 304 nM.

For `CCCN(CCN1CCN(C(=O)c2cc3ccccc3[nH]2)CC1)[C@H]1CCc2c(O)cccc2C1`, the Ki (D(3) dopamine receptor [2]) was 0.57 nM.

In the case of `CCCN(CCN1CCN(c2ccc(-c3ccncc3)cc2)CC1)[C@H]1CCc2nc(N)sc2C1`, the Ki (D(2) dopamine receptor [3]) is reported as 270 nM.

For `CCCN(CCN1CCN(c2ccnc3ccccc23)CC1)C1CCc2ccc(O)cc2C1` (stereo not given), the Ki (D(3) dopamine receptor [4]) was 2.65 nM and the Ki (D(2) dopamine receptor [3]) was 7.08 nM.

Work on `CCCN(CCN1CCN(c2ccnc3ccccc23)CC1)[C@H]1CCc2nc(N)sc2C1` yielded an EC50 (D(3) dopamine receptor [5]) of 0.493 nM, an EC50 (D(2) dopamine receptor [1]) of 77.2 nM and an Emax (D(2) dopamine receptor [6]) of 118%. It also gave a Ki (D(2) dopamine receptor [3]) of 109 nM.

For `CCCN(CCN1CCN(c2cccc3ncccc23)CC1)[C@H]1CCc2nc(N)sc2C1`, the EC50 (D(3) dopamine receptor [5]) was 0.528 nM, the IC50 [7] was 39700 nM and the EC50 (D(2) dopamine receptor [1]) was 13.5 nM. It also gave an Emax (D(2) dopamine receptor [6]) of 104% and a Ki (D(2) dopamine receptor [3]) of 57.7 nM.

`CCCN(CCN1CCN(c2cccc3ccccc23)CC1)C1CCc2ccc(O)cc2C1` (stereo not given) was tested, and the Ki (D(2) dopamine receptor [3]) was 13.5 nM.

With `CCCN(CCN1CCN(c2nccc3ccccc23)CC1)[C@H]1CCc2nc(N)sc2C1` the Ki (D(3) dopamine receptor [4]) was 2.23 nM, the EC50 (D(2) dopamine receptor [8]) was 116 nM and the EC50 (D(3) dopamine receptor [5]) was 0.52 nM. For the same compound, the IC50 [7] was 45700 nM and the Ki (D(2) dopamine receptor [3]) was 269 nM.

With `CCCN(CCN1CCN(c2ccc(-c3ccccc3)cc2)CC1)[C@H]1CCc2nc(N)sc2C1` the EC50 (D(3) dopamine receptor [9]) was 0.085 nM and the EC50 (D(2) dopamine receptor [8]) was 19.9 nM.

With `CCCN(CCN1CCN(c2nccc3ccccc23)CC1)C1CCc2ccc(O)cc2C1` (stereo not given) the Ki (D(2) dopamine receptor [3]) was 21.7 nM.

Work on `CCCN(CCN1CCN(c2cccc3ncccc23)CC1)C1CCc2ccc(O)cc2C1` (stereo not given) yielded a Ki (D(2) dopamine receptor [3]) of 5.22 nM.

For `CCCN(CCN1CCN(c2ccc3ccccc3c2)CC1)C1CCc2ccc(O)cc2C1` (stereo not given), the Ki (D(2) dopamine receptor [3]) was 8.85 nM.
